# From patent publication US9492453B2 (priority 2007, dated 2016)
# Read-outs that look alike come from different tables or passages of the source.
# What was measured:
# [1] = Human dose prediction (estimated human pharmacokinetic parameters); conditions: plasma; from rat and dog Vss corrected by Fu, human/Fu (rat or dog); read-out: Human Vss (Volume of Distribution at Steady State), estimated
# AKT1 (PKBα) = AKT1 (PKBα) (Homo sapiens (Human), UniProt P31749); conditions: read-out: In vitro PKBα Mean IC50, AKT1/PKBα active enzyme, Caliper LabChip LC3000
# PKB (Akt) = conditions: read-out: Cellular PKB Mean IC50; MDA-MB-468 cells, phosphorylation of Serine-9 of GSK-3β, 2 hours incubation
# Sequence of AKT1 (PKBα) (P31749 whole entry): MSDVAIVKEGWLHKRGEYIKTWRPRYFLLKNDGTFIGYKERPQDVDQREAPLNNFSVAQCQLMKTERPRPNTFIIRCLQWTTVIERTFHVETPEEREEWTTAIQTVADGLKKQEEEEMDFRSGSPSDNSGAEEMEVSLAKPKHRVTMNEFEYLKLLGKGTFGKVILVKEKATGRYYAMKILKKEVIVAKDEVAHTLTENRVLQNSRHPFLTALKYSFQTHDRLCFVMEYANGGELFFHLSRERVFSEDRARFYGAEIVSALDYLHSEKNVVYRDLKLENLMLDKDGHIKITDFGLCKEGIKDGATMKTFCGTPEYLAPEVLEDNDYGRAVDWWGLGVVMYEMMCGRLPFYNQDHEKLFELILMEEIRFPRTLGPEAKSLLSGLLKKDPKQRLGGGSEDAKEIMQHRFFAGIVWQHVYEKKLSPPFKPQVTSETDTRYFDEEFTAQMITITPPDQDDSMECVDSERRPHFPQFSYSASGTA
Structure (SMILES),Vd [1],IC50 (AKT1 (PKBα)),IC50 (PKB (Akt)),IC50 (AKT1 (PKBα); tested once only)
"NC1(C(=O)N[C@@H](CCO)c2ccc(Cl)cc2)CCN(c2ncnc3[nH]ccc23)CC1 [Example 9, (S)-4-amino-N-(1-(4-chlorophenyl)-3-hydroxypropyl)-1-(7H-pyrrolo[2,3-d]pyrimidin-4-yl)piperidine-4-carboxamide]",3.3 L/kg,–,–,–
"Cc1c[nH]c2ncnc(N3CCC(N)(C(=O)N[C@@H](CCO)c4ccc(Cl)cc4)CC3)c12 [Example 36, 4-amino-N-[(1S)-1-(4-chlorophenyl)-3-hydroxypropyl]-1-(5-methyl-7H-pyrrolo[2,3-d]pyrimidin-4-yl)piperidine-4-carboxamide]",–,14 nM,380 nM,–
"Cc1c[nH]c2ncnc(N3CCC(N)(C(=O)N[C@@H](C)c4ccc(Cl)cc4)CC3)c12 [Example 37, 4-amino-N-[(1S)-1-(4-chlorophenyl)ethyl]-1-(5-methyl-7H-pyrrolo[2,3-d]pyrimidin-4-yl)piperidine-4-carboxamide]",–,19 nM,550 nM,–
"CC(C)(O)C[C@H](NC(=O)C1(N)CCN(c2ncnc3[nH]ccc23)CC1)c1ccc(Cl)cc1 [Example 38, 4-amino-N-[(1S)-1-(4-chlorophenyl)-3-hydroxy-3-methylbutyl]-1-(7H-pyrrolo[2,3-d]pyrimidin-4-yl)piperidine-4-carboxamide]",–,5.4 nM,360 nM,–
"NC1(C(=O)N[C@@H](CCO)c2cccc(Cl)c2)CCN(c2ncnc3[nH]ccc23)CC1 [Example 40, 4-amino-N-[(1S)-1-(3-chlorophenyl)-3-hydroxypropyl]-1-(7H-pyrrolo[2,3-d]pyrimidin-4-yl)piperidine-4-carboxamide]",–,32 nM,1900 nM,–
"C[C@H](NC(=O)C1(N)CCN(c2ncnc3[nH]ccc23)CC1)c1ccc(C(F)(F)F)cc1 [Example 41, 4-amino-1-(7H-pyrrolo[2,3-d]pyrimidin-4-yl)-N-{(1S)-1-[4-(trifluoromethyl)phenyl]ethyl}piperidine-4-carboxamide]",–,16 nM,540 nM,–
"C[C@@H](NC(=O)C1(N)CCN(c2ncnc3[nH]ccc23)CC1)c1ccc(Br)cc1 [Example 42, 4-amino-N-[(1R)-1-(4-bromophenyl)ethyl]-1-(7H-pyrrolo[2,3-d]pyrimidin-4-yl)piperidine-4-carboxamide]",–,32 nM,4300 nM,–
"N#CC(NC(=O)C1(N)CCN(c2ncnc3[nH]ccc23)CC1)c1ccc(Cl)cc1 (stereo not shown) [Example 45, 4-amino-N-[(4-chlorophenyl)(cyano)methyl]-1-(7H-pyrrolo[2,3-d]pyrimidin-4-yl)piperidine-4-carboxamide]",–,230 nM,770 nM,–
"CN1CCN(CC[C@H](NC(=O)C2(N)CCN(c3ncnc4[nH]ccc34)CC2)c2ccc(Cl)cc2)CC1 [Example 50, 4-amino-N-[(1S)-1-(4-chlorophenyl)-3-(4-methylpiperazin-1-yl)propyl]-1-(7H-pyrrolo[2,3-d]pyrimidin-4-yl)piperidine-4-carboxamide]",–,4.3 nM,190 nM,–
"NC1(C(=O)N[C@@H](CCN2CCOCC2)c2ccc(Cl)cc2)CCN(c2ncnc3[nH]ccc23)CC1 [Example 51, 4-amino-N-[(1S)-1-(4-chlorophenyl)-3-morpholin-4-ylpropyl]-1-(7H-pyrrolo[2,3-d]pyrimidin-4-yl)piperidine-4-carboxamide]",–,10 nM,310 nM,–
"NC1(C(=O)N[C@@H](CCN2CCNCC2)c2ccc(Cl)cc2)CCN(c2ncnc3[nH]ccc23)CC1 [Example 53, 4-amino-N-[(1S)-1-(4-chlorophenyl)-3-piperazin-1-ylpropyl]-1-(7H-pyrrolo[2,3-d]pyrimidin-4-yl)piperidine-4-carboxamide]",–,6.3 nM,> 2400 nM,–
"NC1(C(=O)N[C@@H](CCn2ccnc2)c2ccc(Cl)cc2)CCN(c2ncnc3[nH]ccc23)CC1 [Example 54, 4-amino-N-[(1S)-1-(4-chlorophenyl)-3-(1H-imidazol-1-yl)propyl]-1-(7H-pyrrolo[2,3-d]pyrimidin-4-yl)piperidine-4-carboxamide]",–,3.4 nM,180 nM,–
"NC1(C(=O)NC(Cc2ncc[nH]2)c2ccc(Cl)cc2)CCN(c2ncnc3[nH]ccc23)CC1 (stereo not shown) [Example 59, 4-amino-N-(1-(4-chlorophenyl)-2-(1H-imidazol-2-yl)ethyl)-1-(7H-pyrrolo[2,3-d]pyrimidin-4-yl)piperidine-4-carboxamide]",–,6.3 nM,840 nM,–
"NC1(C(=O)NC(Cn2cccn2)c2ccc(Cl)cc2)CCN(c2ncnc3[nH]ccc23)CC1 (stereo not shown) [Example 60, 4-amino-N-[1-(4-chlorophenyl)-2-(1H-pyrazol-1-yl)ethyl]-1-(7H-pyrrolo[2,3-d]pyrimidin-4-yl)piperidine-4-carboxamide]",–,23 nM,470 nM,–
"Cc1cc(CC(NC(=O)C2(N)CCN(c3ncnc4[nH]ccc34)CC2)c2ccc(Cl)cc2)on1 (stereo not shown) [Example 61, 4-amino-N-[1-(4-chlorophenyl)-2-(3-methylisoxazol-5-yl)ethyl]-1-(7H-pyrrolo[2,3-d]pyrimidin-4-yl)piperidine-4-carboxamide]",–,23 nM,850 nM,–
"NC1(C(=O)NC(Cc2nccs2)c2ccc(Cl)cc2)CCN(c2ncnc3[nH]ccc23)CC1 (stereo not shown) [Example 62, 4-amino-N-(1-(4-chlorophenyl)-2-(thiazol-2-yl)ethyl)-1-(7H-pyrrolo[2,3-d]pyrimidin-4-yl)piperidine-4-carboxamide]",–,28 nM,560 nM,–
"NC(=O)CC(NC(=O)C1(N)CCN(c2ncnc3[nH]ccc23)CC1)c1ccc(Cl)cc1 (stereo not shown) [Example 66, 4-amino-N-(3-amino-1-(4-chlorophenyl)-3-oxopropyl)-1-(7H-pyrrolo[2,3-d]pyrimidin-4-yl)piperidine-4-carboxamide]",–,–,990 nM,6.6 nM
"NC(=O)NCCC(NC(=O)C1(N)CCN(c2ncnc3[nH]ccc23)CC1)c1ccc(Cl)cc1 (stereo not shown) [Example 67, 4-amino-N-(1-(4-chlorophenyl)-3-ureidopropyl)-1-(7H-pyrrolo[2,3-d]pyrimidin-4-yl)piperidine-4-carboxamide]",–,–,890 nM,7.7 nM
"N#CCC(NC(=O)C1(N)CCN(c2ncnc3[nH]ccc23)CC1)c1ccc(Cl)cc1 (stereo not shown) [Example 68, 4-amino-N-(1-(4-chlorophenyl)-2-cyanoethyl)-1-(7H-pyrrolo[2,3-d]pyrimidin-4-yl)piperidine-4-carboxamide]",–,12 nM,340 nM,–
